How the values were obtained:
Format in all cases: in vivo, rat
rats subjected to MCAO [1] = test: NeuN immunostaining, viable neurons after MCAO; settings: 15 mg/kg
Procedure: MCAO surgery was performed as previously reported by Vendrame et al (Vendrame et al., 2004) and originally described by Longa et al (Longa et al., 1989). Laser Doppler Radar (LDR) was used to monitor decrease in blood perfusion which indicates successful occlusion (Moor Instruments Ltd, Devon, England). A 2 mm diameter hole was drilled into the right parietal bone (1 mm posterior and 4 mm lateral from bregma), and a guide screw was set. The LDR probe (MP10M200ST; Moor) was inserted into the guide screw, and the tip of the probe was placed against the pial surface of the brain. […] For MCAO, the embolus (4 cm long, 6 lb test monofilament) was advanced up the internal carotid artery into the middle cerebral artery and tied off at the internal/external carotid junction to produce permanent occlusion. The rat was then sutured, given a 1 ml subcutaneous injection of saline, and allowed to wake in a fresh cage. […]
[…]. […] The area of the contralateral side of the brain tissue was measured and used to compensate for possible edema in ipsilateral hemispheres. NeuN immunostaining was analyzed using the NIH Image J software to count NeuN positive cells by particle analysis in the ipsilateral hemispheres of the corticalustriatal and corticaluhippocampal regions of the rat brains at a magnification of 10×.

rats subjected to MCAO [2] = test: GFAP immunostaining, reactive astrocytes after MCAO; settings: 15 mg/kg DTG from 24 h post-MCAO
Procedure: (§1) MCAO surgery was performed as previously reported by Vendrame et al (Vendrame et al., 2004) and originally described by Longa et al (Longa et al., 1989). Laser Doppler Radar (LDR) was used to monitor decrease in blood perfusion which indicates successful occlusion (Moor Instruments Ltd, Devon, England). A 2 mm diameter hole was drilled into the right parietal bone (1 mm posterior and 4 mm lateral from bregma), and a guide screw was set. The LDR probe (MP10M200ST; Moor) was inserted into the guide screw, and the tip of the probe was placed against the pial surface of the brain. […] For MCAO, the embolus (4 cm long, 6 lb test monofilament) was advanced up the internal carotid artery into the middle cerebral artery and tied off at the internal/external carotid junction to produce permanent occlusion. The rat was then sutured, given a 1 ml subcutaneous injection of saline, and allowed to wake in a fresh cage.
(§2) Rats were randomly assigned to 1 of 7 groups: (1) MCAO (n=7); (2) MCAO and 15 mg/kg DTG in a 3% lactic acid vehicle (n=11); (3) MCAO and 30 mg/kg DTG (n=16); (4) MCAO and bi-daily injections of 30 mg/kg DTG (n=12); (5) MCAO and 10 mg/kg N-[2-(3,4-dichlorophenyl)ethyl]-N-methyl-2-(dimethylamino)ethylamine (BD 1047) (n=4); (6) MCAO and 10 mg/kg BD1047+30 mg/kg DTG (n=4); (7) sham/MCAO and 15 mg/kg DTG (n=4). […]

rats subjected to MCAO [3] = test: isolectin IB4 labeling, activated microglia/macrophages after MCAO; settings: 15 mg/kg DTG from 24 h post-MCAO
Procedure: as §1, §2

Structure (SMILES): Cc1ccccc1NC(=N)Nc1ccccc1C [DTG, 1,3-di-o-tolyguanidine]
- increase of surviving NeuN cells in the infarct zone relative to MCAO-only animals (rats subjected to MCAO [1]; 24 hr post stroke): > 83%
- number of viable neurons (NeuN) in ipsilateral infarct zones (rats subjected to MCAO [1]; cortical/striatal and cortical/hippocampal, p<0.001): significantly increased
- level of GFAP expression in brain sections (rats subjected to MCAO [2]): marked decrease
- isolectin IB4-positive cells in the infarct zone (rats subjected to MCAO [3]): fails to elicit these elevations

From patent US20070123556A1, “Treatment with Sigma Receptor Agonists Post-Stroke” (UNIVERSITY OF SOUTH FLORIDA, priority 2005, published 2007)
